Source: patent US4073910A, “Method for treatment of diabetes” (Eisai Co., Ltd., priority 1975, dated 1978)
Where “and” joins values, the source holds several entries; their conditions need not be identical. Identical values can stand only once.

What was measured:
[1] = test system: human diabetics (University Group Diabetes Program); details: oral administration, 8 years; cited from earlier work
blood-sugar amount = details: reported in 1955; cited from earlier work
alloxan diabetic rats = assay: Effect on alloxan diabetes in rats (glycosuria, blood-sugar, urinary volume); assay type: in vivo, male wistar rats; details: for restraining effect on quantity of glycosuria: Compound TA 80 mg/Kg, Compound NA 20 mg/Kg p.o. once a day for three weeks; for quantity of blood-sugar versus alloxan diabetic control group (in words): FIGS. 3 and 4, after 24 hours and 12 hours fasting; for effect for treatment of alloxan-diabetes (conclusion): alloxan diabetic rats; for blood-sugar level compared with diabetic control group (summary) / quantity of glycosuria compared with diabetic control group (summary) / urinary volume compared with diabetic control group (summary): summary of experiments
Protocol: Experiments were carried out in six-week male wistar rats weighing approximately 180 g. […] After 10 days, animals displaying abnormal quantity of glycosuria were selected as "diabetic" animals. Abnormality was arbitrarily determined as quantity of glycosuria for 24 hours over 0.5 g. Total 32 alloxan diabetic rats were divided into four aliquot groups of every eight rats at random. […] These rats were placed in the metabolism cage equiped with solid foods and drinking water. The foods were removed after 9 hours, and urine was collected from said rats for 24 hours. In other experience, total 45 alloxan diabetic rats were divided into three groups of aliquot. […] These rats were placed in the metabolism cages equiped with drinking water, and urine was collected for 12 hours. Blood was also collected in each case from the carotid artery of the rats under anesthesia. for the urine and the plasma, the following biochemical tests were effected. (a) Quantity of the blood-sugar and the glycosuria: Anthrone method.

[2] = Test of acute toxicity in rats; assay type: in vivo; details: rat, in vivo
Protocol: (§1) Acute toxicity of Compound TN for males and females of mice rats were tested.

rats [3] = assay: Test of acute toxicity in rats; assay type: in vivo; details: rats, administerable maximum quantity
Protocol: as §1

[4] = Test of acute toxicity in mice; assay type: in vivo; details: mouse, in vivo
Protocol: as §1

mice = assay: Test of acute toxicity in mice; assay type: in vivo; details: mice, administerable maximum quantity
Protocol: as §1

rats [5] = assay: Test of subacute and chronic toxicity in rats; assay type: in vivo; details: 100 to 1000 mg/Kg, three or six months
beagles = assay: Test of subacute and chronic toxicity in beagles; assay type: in vivo; details: 100 mg/Kg, three or six months
pregnant mice = assay: Test for malformation in pregnant mice; assay type: in vivo; details: oral, 100 to 1200 mg/Kg
pregnant rats = assay: Test for malformation in pregnant rats; assay type: in vivo; details: oral, 100 to 1200 mg/Kg
diabetics = assay: Clinical data: blood sugar and ΔIRI/ΔBS in glucose tolerance test of diabetics; assay type: in vivo, human
Protocol: There were selected 15 diabetics, whose blood-sugar values are 111-150 mg;, respectively. The diabetics are 56.8 years old in average, ranging from 49 to 65 years old. They consist of 10 males and 5 females.
It was previously confirmed that the body weights of the diabetics are almost not varied during the continuation of dietetics.
There were orally administered a daily dose of six capsules for 8 weeks, each capsule containing 100 mg of the Compound TN.
Before and after the administration of the compound of the present invention, 50 g of sugar are orally administered to carry out glucose tolerance test. Quantities of blood-sugar were measured by means of Autoanalyzer with respect to the blood which was collected from the vein of the elbow. Further, quantities of insulin were measured, in accordance with Double antibody technic, before the glucose tolerance and after 30 minutes tolerance. From the following resulting quantities, value of ΔIRI/ΔBS was calculated.

Solubility = assay type: physicochemical
[6] = FIG. 1, urine for 24 hours, 100 mg/Kg p.o. once a day for three weeks

In the case of CCCCNC(=O)NS(=O)(=O)c1ccc(C)cc1 [Tolbutamide], the “number of deaths due to heart-blood vessel disorder, compared with placebo group” value [1] is listed as 2.5 times.
In the case of CCCCNC(=O)NS(=O)(=O)c1ccc(N)cc1 [Carbutamide], the “effect for depressing a blood-sugar amount” value (blood-sugar amount) is listed as “remarkable effect for depressing a blood-sugar amount”.
For O=C(O)c1cccnc1 [Compound NA, nicotinic acid], the “restraining effect on quantity of glycosuria” value (alloxan diabetic rats; FIG. 1, urine for 24 hours) was “the restraining effect could not be found”, the “quantity of blood-sugar versus alloxan diabetic control group (in words)” value (alloxan diabetic rats; three weeks p.o.) was “there can not be found the differences” and the “effect for treatment of alloxan-diabetes (conclusion)” value (shortened to “effect for treatment”) (alloxan diabetic rats; three weeks p.o.) was “such effect can not be found”. For the same molecule, the “blood-sugar level compared with diabetic control group (summary)” value (alloxan diabetic rats; three weeks p.o.) was “there could not be found the difference”, the “quantity of glycosuria compared with diabetic control group (summary)” value (alloxan diabetic rats; three weeks p.o.) was “there could not be found the difference” and the “urinary volume compared with diabetic control group (summary)” value (alloxan diabetic rats; three weeks p.o.) was “there could not be found the difference”.
For CC(=O)Oc1c(C)c(C)c2c(c1C)CCC(C)(CCCC(C)CCCC(C)CCCC(C)C)O2 (racemic) [Compound TA, dl-α-tocopheryl acetate], the “restraining effect on quantity of glycosuria” value (alloxan diabetic rats; FIG. 1, urine for 24 hours) was “the restraining effect could not be found”, the “quantity of blood-sugar versus alloxan diabetic control group (in words)” value (alloxan diabetic rats; three weeks p.o.) was “there can not be found the differences” and the “effect for treatment” value (alloxan diabetic rats; three weeks p.o.) was “such effect can not be found”. For the same molecule, the “blood-sugar level compared with diabetic control group (summary)” value (alloxan diabetic rats; three weeks p.o.) was “there could not be found the difference”, the “quantity of glycosuria compared with diabetic control group (summary)” value (alloxan diabetic rats; three weeks p.o.) was “there could not be found the difference” and the “urinary volume compared with diabetic control group (summary)” value (alloxan diabetic rats; three weeks p.o.) was “there could not be found the difference”.
In the case of [H]/N=C(/N)N/C(=N/[H])NCCc1ccccc1 [Phenformin], the “number of deaths due to heart-blood vessel disorder, compared with placebo group” value [1] is listed as 2.5 times.
For Cc1c(C)c2c(c(C)c1OC(=O)c1cccnc1)CCC(C)(CCCC(C)CCCC(C)CCCC(C)C)O2 (racemic) [Compound TN, dl-α-tocopherol nicotinate], the LD50 ([2]; im) was > 10000 mg/kg, the LD50 ([2]; ip) was > 2000 mg/kg and the LD50 ([2]; iv) was > 250 mg/kg. The LD50 ([2]; po) was > 15000 mg/kg, the LD50 ([2]; sc) was > 15000 mg/kg and the “deaths in acute toxicity test” value (rats [3]) was “there is no case wherein the test animals died”. For the same molecule, the LD50 ([4]; im) was > 15000 mg/kg, the LD50 ([4]; ip) was > 4000 mg/kg and the LD50 ([4]; iv) was > 1000 mg/kg. The LD50 ([4]; po) was > 20000 mg/kg, the LD50 ([4]; sc) was > 20000 mg/kg and the “deaths in acute toxicity test” value (mice) was “there is no case wherein the test animals died”. The “appearance of toxicity (hematological, blood biochemical, histological searches)” value (rats [5]) was “there could not be entirely recognized the appearance of the toxicity”, the death case (rats [5]) was “There could not be found the death case” and the restraint of weight (rats [5]) was “There could not be found the death case and the restraint of weight”. The “appearance of toxicity (hematological, blood biochemical, histological searches)” value (beagles) was “there could not be entirely recognized the appearance of the toxicity”, the death case (beagles) was “There could not be found the death case” and the restraint of weight (beagles) was “There could not be found the death case and the restraint of weight”. The “effects for mothers, foetuses and neonatal animals” value (pregnant mice) was “there could not be recognized any effects for mothers, foetuses and neonatal animals”, the malformation (pregnant mice) was “no malformation could be entirely found” and the “effects for mothers, foetuses and neonatal animals” value (pregnant rats) was “there could not be recognized any effects for mothers, foetuses and neonatal animals”. For the same molecule, the malformation (pregnant rats) was “no malformation could be entirely found”, the “reduction of quantity of glycosuria versus diabetic control group (mean)” value (alloxan diabetic rats; [6]) was 1.3 g/day and the “reduction of quantity of glycosuria versus diabetic control group (percent)” value (alloxan diabetic rats; [6]) was 47%. For the same molecule, the quantity of glycosuria (alloxan diabetic rats; FIG. 2, urine for 12 hours, p.o. once a day for three weeks, TN 100 mg/Kg or TA 88 + NA 20 mg/Kg, diabetic control 1.24 g/12 hours) was 0.76 g/12 hours, the “quantity of glycosuria versus diabetic control group (in words)” value (alloxan diabetic rats; FIG. 2, urine for 12 hours, three weeks p.o.) was “clearly reduced” and the “urinary volume (in words)” value (alloxan diabetic rats; FIG. 5, after 12 hours, three weeks p.o.) was “reduces”. For the same molecule, the “quantity of blood-sugar versus alloxan diabetic control group (in words)” value (alloxan diabetic rats; three weeks p.o.) was “reduces significantly the quantity of the blood-sugar”, the “effect for treatment” value (alloxan diabetic rats; three weeks p.o.) was “unique effect for treatment of alloxan-diabetes” and the “blood-sugar level compared with diabetic control group (summary)” value (alloxan diabetic rats; three weeks p.o.) was “small such as P = 0.05”. The “quantity of glycosuria compared with diabetic control group (summary)” value (alloxan diabetic rats; three weeks p.o.) was “small such as P = 0.05”, the “urinary volume compared with diabetic control group (summary)” value (alloxan diabetic rats; three weeks p.o.) was “small such as P = 0.05” and the degree of adiposity (diabetics; 15 diabetics, 8 weeks) was “there could hardly be found a tolerance with respect to the degree of adiposity”. The “Blood Sugar (2) FBS (fasting blood sugar)” value (diabetics; individual patient, after administration, 600 mg/day p.o. (six 100 mg capsules) for 8 weeks) was 114 mg% and 126 mg% and 111 mg% and 124 mg% and 122 mg% and 119 mg% and 123 mg% and 104 mg% and 110 mg% and 121 mg% and 118 mg%, the “ΔIRI/ΔBS (30 min.)” value (diabetics; individual patient, after administration, 8 weeks, 30 min. tolerance) was 0.39 and 0.31 and 0.38 and 0.36 and 0.41 and 0.33 and 0.42 and 0.45 and 0.44 and 0.35 and 0.49 and the “Blood Sugar (2) 1 hour” value (diabetics; individual patient, after administration, 8 weeks, 1 hour after 50 g glucose tolerance) was 196 mg% and 193 mg% and 178 mg% and 198 mg% and 221 mg% and 201 mg% and 205 mg% and 174 mg% and 164 mg% and 211 mg% and 214 mg% and 195 mg% and 185 mg% and 197 mg%. The “Blood Sugar (2) 2 hours” value (diabetics; individual patient, after administration, 8 weeks, 2 hours after 50 g glucose tolerance) was 185 mg% and 184 mg% and 164 mg% and 195 mg% and 189 mg% and 178 mg% and 186 mg% and 154 mg% and 179 mg% and 181 mg% and 163 mg% and 172 mg% and 190 mg%, the “Blood Sugar (2) 3 hours” value (diabetics; individual patient, after administration, 8 weeks, 3 hours after 50 g glucose tolerance) was 136 mg% and 114 mg% and 121 mg% and 179 mg% and 175 mg% and 154 mg% and 171 mg% and 141 mg% and 105 mg% and 172 mg% and 130 mg% and 153 mg% and the “Blood Sugar (2) 1 hour, mean” value (diabetics; mean of 15, after administration, 8 weeks, 1 hour tolerance, before administration 226.5, P<0.05) was 193.1 mg%. For the same molecule, the “Blood Sugar (2) 2 hours, mean” value (diabetics; mean of 15, after administration, 8 weeks, 2 hours tolerance, before administration 203.7, P<0.05) was 179.3 mg%, the “Blood Sugar (2) 3 hours, mean” value (diabetics; mean of 15, after administration, 8 weeks, 3 hours tolerance, before administration 166.1, P<0.05) was 145.5 mg% and the “ΔIRI/ΔBS (30 min.), mean” value (diabetics; mean of 15, after administration, 8 weeks, before administration 0.319, P<0.001) was 0.394. For the same molecule, the “Blood Sugar (2) FBS, mean” value (diabetics; mean of 15 diabetics, after administration, 8 weeks, before administration 128.1, P<0.001) was 116.3 mg%, the “solubility in acetone, benzene, chloroform, ether and ethanol” value (Solubility; organic solvents) was “easily soluble” and the solubility in water (Solubility; water) was “hardly soluble”.
